In PubChem BioAssay AID2696 (Johns Hopkins Ion Channel Center, 2010) one finds IC50 data, which are given here for 102 compounds.

By IC50 is commonly meant the midpoint of a concentration-inhibition curve.

The target in this experiment is Short transient receptor potential channel 6 (Mus musculus) (UniProt Q61143). Description: TRPC6 inhibitor potency, dose response, cell-based, mouse TRPC6, HEK293, membrane potential (AID 2696). The settings on record: TRPC6-expressing HEK293 cells, membrane potential dye fluorescence, acetylcholine-stimulated.
Short transient receptor potential channel 6 (Mus musculus), sequence (Q61143 whole entry, looked up): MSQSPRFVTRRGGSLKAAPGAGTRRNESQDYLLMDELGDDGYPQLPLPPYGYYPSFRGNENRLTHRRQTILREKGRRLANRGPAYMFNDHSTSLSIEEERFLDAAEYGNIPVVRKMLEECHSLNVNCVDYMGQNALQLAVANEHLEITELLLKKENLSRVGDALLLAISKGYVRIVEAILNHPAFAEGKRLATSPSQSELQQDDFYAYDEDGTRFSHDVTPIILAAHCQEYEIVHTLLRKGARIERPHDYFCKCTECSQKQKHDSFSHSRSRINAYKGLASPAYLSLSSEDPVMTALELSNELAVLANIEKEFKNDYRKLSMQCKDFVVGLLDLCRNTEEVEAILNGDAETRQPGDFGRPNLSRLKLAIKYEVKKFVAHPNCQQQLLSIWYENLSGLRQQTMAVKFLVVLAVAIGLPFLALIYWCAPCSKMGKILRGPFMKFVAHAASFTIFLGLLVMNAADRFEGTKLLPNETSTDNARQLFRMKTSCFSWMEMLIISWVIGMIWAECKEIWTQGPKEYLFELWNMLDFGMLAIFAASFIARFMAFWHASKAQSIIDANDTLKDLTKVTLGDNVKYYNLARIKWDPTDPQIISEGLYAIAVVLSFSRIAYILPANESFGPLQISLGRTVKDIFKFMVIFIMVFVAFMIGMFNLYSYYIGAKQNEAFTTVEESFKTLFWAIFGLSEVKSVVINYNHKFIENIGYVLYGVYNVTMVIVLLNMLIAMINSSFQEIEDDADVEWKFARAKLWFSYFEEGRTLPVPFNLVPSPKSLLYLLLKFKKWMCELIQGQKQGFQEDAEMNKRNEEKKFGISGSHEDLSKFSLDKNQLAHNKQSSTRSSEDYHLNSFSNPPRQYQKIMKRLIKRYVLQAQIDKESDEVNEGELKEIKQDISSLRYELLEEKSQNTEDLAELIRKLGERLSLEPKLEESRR
In the case of `CN(C)CCCNc1nc(-c2ccccc2)nc2ccccc12`, the IC50 was 79.4 µM. To `COc1ccc(N2C(=O)CSC23C(=O)N2CCCc4cccc3c42)cc1` (configuration not stated) belongs 1.12 µM.

`Cc1ccc(-c2nc(C(=O)NCCCN3CCOCC3)cc3c2[nH]c2ccccc23)cc1`: the half-maximal inhibitory concentration (IC50) is 50.1 µM. For `COc1ccccc1Nc1nc(NCC2CCCO2)c2ccccc2n1` (configuration not stated), the concentration for half-maximal inhibition (IC50) is 79.4 µM.

Regarding `CC(C)c1ccc(OCC(O)Cn2cnc3ccccc32)cc1` (configuration not stated), the IC50 is 39.8 µM. To `Cc1ccc(C(=O)OCCc2sc[n+](Cc3ccccc3)c2C)cc1` belongs 17.8 µM. In the case of `CCC(CO)(C(=O)OC1CC2CCC(C1)N2C)c1ccccc1` (configuration not stated) it was 0.09 µM; in that of `CN(C)CCN(C(=O)c1cccs1)c1nc2cc3c(cc2s1)OCCO3`, 39.8 µM.

As to `CC(C)(C)c1ccc(OCCCCCCN2CCNCC2)cc1`, the IC50 is 50.1 µM. As to `Cc1cc(C)n(-c2nc(NCCCN(C)C)c3c4c(sc3n2)COC(C)(C)C4)n1`, the concentration for half-maximal inhibition (IC50) was 14.1 µM. In the case of `CN(C)CCOc1nc(-c2ccccc2)nc2c1oc1ccccc12` it was 70.8 µM. Consider `Nc1c2c(nc3ccn(Cc4ccccc4)c(=O)c13)CCC2`, for which the IC50 is 70.8 µM. On to `CN(C)C/C=C/C(O)(c1ccccc1)c1ccccc1`, for which the half-inhibitory concentration (IC50) was 10 µM. In the case of `Cc1onc(-c2c(F)cccc2Cl)c1C(=O)NC(=S)Nc1c(C)n(C)n(-c2ccccc2)c1=O`, the 50% inhibitory concentration (IC50) is 39.8 µM. To `N=c1c(C(=O)NCC2CCCO2)cc2c(=O)n3ccccc3nc2n1Cc1ccccc1Cl` (configuration not stated) belongs 44.7 µM. To `CCCCNC(=O)c1cc2c(=O)n3cccc(C)c3nc2n(Cc2ccncc2)c1=N` belongs 44.7 µM; to `CC(C)C(O)(C#CCN1CCCCC1)c1ccccc1` (configuration not stated), 11.2 µM; to `CCCCc1nc2ccccc2c(N)c1CCC` (tested in a mixture with another compound), 70.8 µM. To `CC1=NN(c2ccccc2)C(=O)/C1=C/C=C/c1ccc(N(C)C)cc1` belongs 44.7 µM; to `OC(CCN1CCCCC1)(c1ccccc1)c1ccccc1`, 2.82 µM. Regarding `Oc1ccccc1Oc1ncc(Br)c(N2CCOCC2)n1`, the IC50 is 39.8 µM. To `CCCn1c(=N)n(CC(=O)c2ccc(Cl)cc2)c2ccccc21` belongs 70.8 µM; to `CCOC(=O)c1c(CNc2ccncc2)n(C)c2cc(Br)c(O)cc12`, 44.7 µM; to `CCOC(=O)N1CCC(N2Cc3cccc(C(=O)Nc4ccc(CC)cc4)c3C2=O)CC1`, 44.7 µM. In the case of `Cc1cc(C)n(-c2nc(NCCCN(C)C)c3c4c(sc3n2)CCCC4)n1` it was 44.7 µM; in that of `COc1ccccc1C(=O)NCC1CCN(c2ccc(S(=O)(=O)N3CCOCC3)cc2)CC1`, 19.9 µM. In the case of `Clc1ccc(C(c2ccccc2)N2CCNCC2)cc1` (configuration not stated) it was 50.1 µM; in that of `Cc1cc(C)c2sc(N(CCCN(C)C)C(=O)c3ccc(Br)s3)nc2c1`, 63.1 µM; in that of `Cc1cccn2c(=O)c3cc(C(=O)NC(C)C)c(=N)n(Cc4ccncc4)c3nc12`, 70.8 µM. Turning to `O=C1Nc2ccccc2OC1CC(=O)N1CCN(c2cccc(C(F)(F)F)c2)CC1` (configuration not stated), the IC50 was 79.4 µM.

For `Cc1ccc(C(OCC(C)(C)C[N+](C)(C)C)c2ccccc2)cc1` (configuration not stated), the 50% inhibitory concentration (IC50) is 44.7 µM. Take `O=C(c1ccc2c(=O)n3c(nc2c1)CCCCC3)N1CCN(C(c2ccccc2)c2ccccc2)CC1`: the IC50 is 19.9 µM.

Turning to `OC(C#CCN1CCCC1)(c1ccccc1)c1ccccc1`, the IC50 was 3.98 µM.

Take `CCN(CC)CC#CC(O)(c1ccccc1)c1ccccc1`: the IC50 is 8.91 µM.

As to `OC(C#CCN1CCCCCC1)(c1ccccc1)c1cccnc1` (configuration not stated), the IC50 was 39.8 µM.

Take `Cn1c(=O)c2c(nc(SCCN3CCCCC3)n2Cc2ccccc2)n(C)c1=O`: the IC50 was 70.8 µM. Take `Fc1ccc([C@@H]2CCNC[C@H]2COc2ccc3c(c2)OCO3)cc1`: the IC50 was 44.7 µM. In the case of `c1ccc2c(c1)CC1CNCc3cccc(c31)S2` (configuration not stated) it was 70.8 µM. In the case of `COc1cc2c(cc1O)CC[n+]1cc3c(OC)c(OC)ccc3cc1-2` it was 50.1 µM. In the case of `Cc1cc(C)c2nc(C)cc(Nc3ccc(C(=O)N4CCOCC4)cc3)c2c1` it was 79.4 µM; in that of `O=C(NCC(=O)N(c1ccc2c(c1)OCCO2)C(C(=O)NC1CCCC1)c1ccco1)c1ccco1` (configuration not stated), 44.7 µM; in that of `CCN(CC)CCNC(=O)c1ccc(NC(=O)c2cccc(S(=O)(=O)Nc3ccc(C)cc3)c2)cc1`, 31.6 µM. In the case of `CC[N+](C)(CC)CCC/C(=N/O)C(O)(c1ccccc1)c1ccccc1`, the IC50 was 15.8 µM. To `CCCCCC[N+](C)(C)CC/C=C1/c2ccccc2Sc2ccc(Cl)cc21` belongs 12.6 µM.

With `C[N+]1(CC#CC(O)(c2ccccc2)c2ccccc2)CCCC1`, the IC50 was 2.24 µM. For `Cn1c2c(c(=O)n(C)c1=O)C(C(F)(F)F)(C(F)(F)F)N=C(c1ccc(Cl)cc1)N2`, the IC50 was 7.94 µM. For `COc1ccc(Nc2ccnc3ccccc23)cc1`, the IC50 is 70.8 µM. In the case of `CC(C)NCC(O)Cn1c2c(c3ccccc31)CCc1c-2cnn1-c1ccccc1` (configuration not stated) it was 79.4 µM; in that of `CCN(CC)CCC#CC(O)(c1ccccc1)C1CCCCC1` (configuration not stated), 11.2 µM; in that of `Cc1cccc2sc(N(CCCN(C)C)C(=O)c3ccco3)nc12`, 70.8 µM. As to `Oc1ccccc1Nc1nc(NCC2CCCO2)c2ccccc2n1` (configuration not stated), the IC50 was 50.1 µM. To `COc1ccc2ccccc2c1CNCc1ccc(C)cc1` belongs 44.7 µM; to `COc1ccc(C(=O)C2CCCN(Cc3cccn3-c3ccccn3)C2)cc1F` (configuration not stated), 79.4 µM. Take `O=S(=O)(Nc1nc2ccccc2[nH]1)c1ccc(Cl)cc1`: the IC50 is 7.08 µM. To `CCOc1cccc(=NC2CCCCC2)c2c(C)n(C)c(C)c12` belongs 50.1 µM. In the case of `COCC(C)NC(=O)c1ccc(CN2CCc3ccccc3C2)cc1` (configuration not stated) it was 44.7 µM; in that of `COc1ccccc1Nc1nc(N)nc(CSC(=S)N2CCCCC2C)n1` (configuration not stated), 44.7 µM.

For the compound `CCOCCN1CCN(C2c3ccccc3CSc3ccccc32)CC1` (configuration not stated), the IC50 was 50.1 µM. Regarding `C[n+]1ccc(/C=N/Nc2nc(Cl)c(C#N)c(Cl)c2Cl)cc1`, the half-maximal inhibitory concentration (IC50) was 39.8 µM. To `Cc1cc(C)c2nc(C)cc(Nc3ccc(C(=O)NCCO)cc3)c2c1` belongs 44.7 µM; to `Cc1cccn2c(=O)c3cc(C(=O)NCc4ccco4)c(=N)n(C(C)C)c3nc12`, 44.7 µM. To `CCN(c1ccccc1)S(=O)(=O)c1cccc(C(=O)N2CCN(S(=O)(=O)c3ccccc3)CC2)c1` belongs 63.1 µM; to `Nc1ccc(C(=O)OCc2nc3ccccc3s2)cc1`, 79.4 µM. In the case of `CCOc1ccc(CNc2ccc3c(c2)ncn3C(C)(C)C)cc1` it was 14.1 µM.

Regarding `CN(C)CCNc1c2c(c(C#N)c3nc4ccccc4n13)CCCC2`, the IC50 was 79.4 µM. Regarding `CCN(CC)CCC#CC(O)(c1ccccc1)c1ccccc1`, the half-inhibitory concentration (IC50) was 14.1 µM.

In the case of `O=C(CSc1c2c(nc3ccc(Cl)cc13)CCCC2)NCCCN1CCOCC1`, the IC50 is 39.8 µM.

As for `Cc1cc(C)c2nc(N3CCC(C(=O)NCCCN4CCCCC4)CC3)sc2c1`, the concentration for half-maximal inhibition (IC50) was 39.8 µM. With `Cc1c(Cl)cccc1Nc1nc(NCCO)c2ccccc2n1`, the IC50 was 79.4 µM. As to `c1ccc(-c2nc(-c3ccccn3)nc(-c3ccccn3)n2)nc1`, the half-inhibitory concentration (IC50) is 44.7 µM. In the case of `COc1ccccc1-n1c(-c2ccccc2)c[n+]2c1CCc1ccccc1-2` it was 19.9 µM.

With `CC(C)CC1CCCCC1OC(=O)C[N+]1(C)CCCCC1` (configuration not stated), the 50% inhibitory concentration (IC50) was 15.8 µM.

For `C[C@H]1OC[C@@H](C[N+](C)(C)C)O1`, the IC50 is 4.47 µM. As to `Cc1cccc(NS(=O)(=O)c2cccc(C(=O)N3CCN(c4ccccn4)CC3)c2)c1`, the concentration for half-maximal inhibition (IC50) was 50.1 µM. To `COc1ccc2ccccc2c1CNCCc1ccccc1` belongs 50.1 µM; to `c1ccc2c(c1)CCc1ccccc1C2=C1CCNCC1`, 28.2 µM. In the case of `Cc1ccc2c(c1)NC(=O)C(CC(=O)Nc1ccc(CN3CCC(C)CC3)cc1)O2` (configuration not stated) it was 3.98 µM.

Consider `Cc1ccc(C[n+]2c(-c3ccc(C)cc3)cc(-c3ccc(C)cc3)cc2-c2ccc(C)cc2)cc1`, for which the half-maximal inhibitory concentration (IC50) was 79.4 µM. To `COC(=O)c1ccc(NC2(C#N)C(=O)Nc3ccccc32)cc1` (configuration not stated) belongs 50.1 µM; to `CCOC(=O)c1sc(=S)n(-c2ccccc2Cl)c1SC`, 12.6 µM; to `O=C(NNS(=O)(=O)c1ccc(Cl)cc1)C1CCN(Cc2ccccc2)CC1`, 35.5 µM. As to `COC(=O)c1ccc(Nc2cc(C)nc3ccc(C)cc23)cc1`, the IC50 is 31.6 µM. `COCCCNC(=S)N1CCCN(c2nc3cc(C)ccc3cc2C#N)CC1`: the IC50 was 39.8 µM. As to `C[N+]1(CCOC(=O)C2(c3ccccc3)CCCC2)CCCCC1`, the half-maximal inhibitory concentration (IC50) was 15.8 µM.

`CCN(CC)CCCNc1nc(-c2ccccc2)nc2ccccc12`: the IC50 was 79.4 µM. As to `Cc1ccc(C23CC4CC(CC(CN)(C4)C2)C3)cc1`, the IC50 was 39.8 µM. To `Cn1c(=O)c(C#N)c(-c2ccc(F)cc2)c2cc(C(=O)c3cc(Cl)cc(Cl)c3O)cnc21` belongs 44.7 µM; to `N#Cc1c(-n2cccc2/C=N/O)sc2c1CCCC2`, 39.8 µM. In the case of `S=C1N(c2ccccc2)C(c2ccc(Cl)cc2)N2CCCN12` (configuration not stated) it was 17.8 µM. To `CCOC(=O)c1cnc2c(Cl)cccc2c1NCCN(C)C` belongs 63.1 µM. Regarding `CC1CCC(C(C)C)C(OCC[N+](C)(C)C)C1` (configuration not stated), the concentration for half-maximal inhibition (IC50) was 2.82 µM. Regarding `S=C1N(c2ccccc2)C(c2ccc(Br)cc2)N2CCCN12` (configuration not stated), the IC50 was 17.8 µM. As for `Cc1ccc(S(=O)(=O)NNC(=O)C2CCN(Cc3ccccc3)CC2)cc1`, the IC50 was 2.82 µM. As for `CCCCC(O)(CCN1CCOCC1)c1ccc(Cl)cc1` (configuration not stated), the half-maximal inhibitory concentration (IC50) is 44.7 µM. To `C[N+](C)(N)CCOC(=O)C(O)(c1ccccc1)C1CCCCC1` (configuration not stated) belongs 0.32 µM; to `CCN(CC)CC(=O)Nc1cc(N(C)C)nc2ccccc12`, 70.8 µM. In the case of `C[N+](C)(C)C/C=C1/COCO1` it was 11.2 µM; in that of `CN(C)C(C)(C)C#CC(O)(c1ccccc1)c1ccccc1`, 39.8 µM; in that of `c1ccc(Cn2c(-c3ccccc3)c[n+]3c2SCCC3)cc1`, 3.98 µM. With `CC(C)[N+](C)(C)CC#CC(O)(c1ccccc1)c1ccccc1`, the IC50 was 2 µM.

With `CN(C)CCN(C(=O)c1ccc2c(c1)OCCO2)c1nc2c(Cl)cccc2s1`, the IC50 was 50.1 µM.

For the compound `CCOC(=O)c1ccc(NC(=S)NCc2ccco2)cc1`, the half-maximal inhibitory concentration (IC50) is 50.1 µM.
